Measurements taken from PubChem BioAssay (NCI).
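Protocol summary: plate cells (96-well), add compound at 5 concentrations, incubate 48 h, interpolate endpoints linearly. At the GI50, growth is halved. TGI is the concentration that stops growth completely.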

Experiments:
Assay in all cases: NCI-60 cell line screen, 48 h
EKVX NSCLC = tested on: EKVX NSCLC
HCT-15 colon = tested on: HCT-15 colon
SF-268 CNS = tested on: SF-268 CNS
K-562 leukemia = tested on: K-562 leukemia
COLO 205 colon = tested on: COLO 205 colon
MDA-MB-231 breast = tested on: MDA-MB-231 breast
786-0 renal = tested on: 786-0 renal
TK-10 renal = tested on: TK-10 renal
OVCAR-8 ovarian = tested on: OVCAR-8 ovarian
SNB-19 CNS = tested on: SNB-19 CNS
SF-539 CNS = tested on: SF-539 CNS
M14 melanoma = tested on: M14 melanoma
NCI-H460 lung = tested on: NCI-H460 lung
NCI-H522 lung = tested on: NCI-H522 lung
HCC-2998 colon = tested on: HCC-2998 colon
NCI-H23 lung = tested on: NCI-H23 lung
NCI-H226 lung = tested on: NCI-H226 lung
HCT-116 colon = tested on: HCT-116 colon
UACC-62 melanoma = tested on: UACC-62 melanoma
NCI/ADR-RES ovarian = tested on: NCI/ADR-RES ovarian
OVCAR-5 ovarian = tested on: OVCAR-5 ovarian
PC-3 prostate = tested on: PC-3 prostate
SN12C renal = tested on: SN12C renal
HOP-62 NSCLC = tested on: HOP-62 NSCLC
U251 CNS = tested on: U251 CNS
HS 578T breast = tested on: HS 578T breast
UO-31 renal = tested on: UO-31 renal
IGROV1 ovarian = tested on: IGROV1 ovarian
RXF 393 renal = tested on: RXF 393 renal
SNB-75 CNS = tested on: SNB-75 CNS
SK-MEL-28 melanoma = tested on: SK-MEL-28 melanoma
T-47D breast = tested on: T-47D breast
LOX IMVI melanoma = tested on: LOX IMVI melanoma
DU-145 prostate = tested on: DU-145 prostate
SW-620 colon = tested on: SW-620 colon
MALME-3M melanoma = tested on: MALME-3M melanoma
MDA-MB-435 = tested on: MDA-MB-435
OVCAR-4 ovarian = tested on: OVCAR-4 ovarian
UACC-257 melanoma = tested on: UACC-257 melanoma
MCF7 breast = tested on: MCF7 breast
SK-MEL-5 melanoma = tested on: SK-MEL-5 melanoma
A498 renal = tested on: A498 renal
OVCAR-3 ovarian = tested on: OVCAR-3 ovarian
SK-OV-3 ovarian = tested on: SK-OV-3 ovarian
A549 NSCLC = tested on: A549 NSCLC
HOP-92 NSCLC = tested on: HOP-92 NSCLC
BT-549 breast = tested on: BT-549 breast
CAKI-1 renal = tested on: CAKI-1 renal
SK-MEL-2 melanoma = tested on: SK-MEL-2 melanoma
ACHN renal = tested on: ACHN renal
HT29 colon = tested on: HT29 colon
SF-295 CNS = tested on: SF-295 CNS
CCRF-CEM leukemia = tested on: CCRF-CEM leukemia
KM12 colon = tested on: KM12 colon
HL-60(TB) leukemia = tested on: HL-60(TB) leukemia
RPMI-8226 leukemia = tested on: RPMI-8226 leukemia

Structure (SMILES): O=[N+]([O-])c1ccc2nc3ccccc3cc2c1
- TGI (EKVX NSCLC): 22.9 µM
- TGI (HCT-15 colon): 10 µM
- TGI (SF-268 CNS): 83.4 µM
- TGI (K-562 leukemia): 8.79 µM
- TGI (COLO 205 colon): 14.9 µM
- TGI (MDA-MB-231 breast): 8.64 µM
- TGI (786-0 renal): 14 µM
- TGI (TK-10 renal): 5.24 µM
- TGI (OVCAR-8 ovarian): 2.58 µM
- TGI (SNB-19 CNS): 12.9 µM
- TGI (SF-539 CNS): 6.82 µM
- TGI (M14 melanoma): 18.1 µM
- TGI (NCI-H460 lung): > 100 µM
- TGI (NCI-H522 lung): 9.79 µM
- TGI (HCC-2998 colon): 3.12 µM
- TGI (NCI-H23 lung): 6.22 µM
- TGI (NCI-H226 lung): 8.97 µM
- TGI (HCT-116 colon): 10.5 µM
- TGI (UACC-62 melanoma): 6.27 µM
- TGI (NCI/ADR-RES ovarian): 3.47 µM
- TGI (OVCAR-5 ovarian): 7.06 µM
- TGI (PC-3 prostate): 10.2 µM
- TGI (SN12C renal): 5.63 µM
- TGI (HOP-62 NSCLC): 6.16 µM
- TGI (U251 CNS): 10.6 µM
- TGI (HS 578T breast): 27.4 µM
- TGI (UO-31 renal): 16.7 µM
- TGI (IGROV1 ovarian): 6.8 µM
- TGI (RXF 393 renal): > 100 µM
- TGI (SNB-75 CNS): 6.53 µM
- TGI (SK-MEL-28 melanoma): 10.7 µM
- TGI (T-47D breast): 15.4 µM
- TGI (LOX IMVI melanoma): 6.91 µM
- TGI (DU-145 prostate): 8.12 µM
- TGI (SW-620 colon): 14.3 µM
- TGI (MALME-3M melanoma): 13.3 µM
- TGI (MDA-MB-435): 3.76 µM
- TGI (OVCAR-4 ovarian): 10.4 µM
- TGI (UACC-257 melanoma): 5.86 µM
- TGI (MCF7 breast): > 100 µM
- TGI (SK-MEL-5 melanoma): 14.4 µM
- TGI (A498 renal): 3.27 µM
- TGI (OVCAR-3 ovarian): 1.3 µM
- TGI (SK-OV-3 ovarian): 20.7 µM
- TGI (A549 NSCLC): 8.95 µM
- TGI (HOP-92 NSCLC): 18.2 µM
- TGI (BT-549 breast): 21.7 µM
- TGI (CAKI-1 renal): 0.0944 µM
- TGI (SK-MEL-2 melanoma): 27.8 µM
- TGI (ACHN renal): 14.9 µM
- TGI (HT29 colon): 4.4 µM

Structure (SMILES): OCC(O)C(O)C(O)/C=N/Nc1nc2ccccc2nc1-c1ccccc1 (stereo not drawn)
- GI50 (EKVX NSCLC): > 100 µM
- TGI (EKVX NSCLC): > 100 µM
- GI50 (HCT-15 colon): 86.3 µM
- TGI (HCT-15 colon): > 100 µM
- GI50 (SF-268 CNS): 74.1 µM
- TGI (SF-268 CNS): > 100 µM
- GI50 (K-562 leukemia): 68.9 µM
- TGI (K-562 leukemia): > 100 µM
- GI50 (COLO 205 colon): 51.6 µM
- TGI (COLO 205 colon): > 100 µM
- GI50 (MDA-MB-231 breast): 64.1 µM
- TGI (MDA-MB-231 breast): > 100 µM
- GI50 (SF-295 CNS): > 100 µM
- TGI (SF-295 CNS): > 100 µM
- GI50 (786-0 renal): > 100 µM
- TGI (786-0 renal): > 100 µM
- GI50 (TK-10 renal): > 100 µM
- TGI (TK-10 renal): > 100 µM
- GI50 (OVCAR-8 ovarian): 91.1 µM
- TGI (OVCAR-8 ovarian): > 100 µM
- GI50 (SNB-19 CNS): > 100 µM
- TGI (SNB-19 CNS): > 100 µM
- GI50 (SF-539 CNS): 20.5 µM
- TGI (SF-539 CNS): > 100 µM
- GI50 (M14 melanoma): > 100 µM
- TGI (M14 melanoma): > 100 µM
- GI50 (NCI-H460 lung): 70.3 µM
- TGI (NCI-H460 lung): > 100 µM
- GI50 (NCI-H522 lung): 72.7 µM
- TGI (NCI-H522 lung): > 100 µM
- GI50 (HCC-2998 colon): 91.2 µM
- TGI (HCC-2998 colon): > 100 µM
- GI50 (NCI-H23 lung): > 100 µM
- TGI (NCI-H23 lung): > 100 µM
- GI50 (CCRF-CEM leukemia): 32.2 µM
- TGI (CCRF-CEM leukemia): > 100 µM
- GI50 (NCI-H226 lung): > 100 µM
- TGI (NCI-H226 lung): > 100 µM
- GI50 (HCT-116 colon): > 100 µM
- TGI (HCT-116 colon): > 100 µM
- GI50 (UACC-62 melanoma): 67.3 µM
- TGI (UACC-62 melanoma): > 100 µM
- GI50 (NCI/ADR-RES ovarian): 45.9 µM
- TGI (NCI/ADR-RES ovarian): > 100 µM
- GI50 (OVCAR-5 ovarian): > 100 µM
- TGI (OVCAR-5 ovarian): > 100 µM
- GI50 (KM12 colon): > 100 µM
- TGI (KM12 colon): > 100 µM
- GI50 (PC-3 prostate): 82.4 µM
- TGI (PC-3 prostate): > 100 µM
- GI50 (SN12C renal): > 100 µM
- TGI (SN12C renal): > 100 µM
- GI50 (HOP-62 NSCLC): > 100 µM
- TGI (HOP-62 NSCLC): > 100 µM
- GI50 (U251 CNS): 77.9 µM
- TGI (U251 CNS): > 100 µM
- GI50 (HS 578T breast): 83.6 µM
- TGI (HS 578T breast): > 100 µM
- GI50 (UO-31 renal): > 100 µM
- TGI (UO-31 renal): > 100 µM
- GI50 (IGROV1 ovarian): 57.4 µM
- TGI (IGROV1 ovarian): > 100 µM
- GI50 (RXF 393 renal): > 100 µM
- TGI (RXF 393 renal): > 100 µM
- GI50 (SNB-75 CNS): > 100 µM
- TGI (SNB-75 CNS): > 100 µM
- GI50 (SK-MEL-28 melanoma): > 100 µM
- TGI (SK-MEL-28 melanoma): > 100 µM
- GI50 (T-47D breast): 41.5 µM
- TGI (T-47D breast): > 100 µM
- GI50 (LOX IMVI melanoma): 72.2 µM
- TGI (LOX IMVI melanoma): > 100 µM
- GI50 (DU-145 prostate): > 100 µM
- TGI (DU-145 prostate): > 100 µM
- GI50 (SW-620 colon): > 100 µM
- TGI (SW-620 colon): > 100 µM
- GI50 (MALME-3M melanoma): > 100 µM
- TGI (MALME-3M melanoma): > 100 µM
- GI50 (MDA-MB-435): > 100 µM
- TGI (MDA-MB-435): > 100 µM
- GI50 (OVCAR-4 ovarian): 28.3 µM
- TGI (OVCAR-4 ovarian): 72.2 µM
- GI50 (HL-60(TB) leukemia): 5.15 µM
- TGI (HL-60(TB) leukemia): > 100 µM
- GI50 (UACC-257 melanoma): > 100 µM
- TGI (UACC-257 melanoma): > 100 µM
- GI50 (MCF7 breast): 97.9 µM
- TGI (MCF7 breast): > 100 µM
- GI50 (RPMI-8226 leukemia): 85.3 µM
- TGI (RPMI-8226 leukemia): > 100 µM
- GI50 (SK-MEL-5 melanoma): 48.5 µM
- TGI (SK-MEL-5 melanoma): > 100 µM
- GI50 (A498 renal): > 100 µM
- TGI (A498 renal): > 100 µM
- GI50 (OVCAR-3 ovarian): 46 µM
- TGI (OVCAR-3 ovarian): > 100 µM
- GI50 (SK-OV-3 ovarian): > 100 µM
- TGI (SK-OV-3 ovarian): > 100 µM
- GI50 (A549 NSCLC): > 100 µM
- TGI (A549 NSCLC): > 100 µM
- GI50 (HOP-92 NSCLC): 60.1 µM
- TGI (HOP-92 NSCLC): > 100 µM
- GI50 (BT-549 breast): > 100 µM
- TGI (BT-549 breast): > 100 µM
- GI50 (CAKI-1 renal): 87.9 µM
- TGI (CAKI-1 renal): > 100 µM
- GI50 (SK-MEL-2 melanoma): > 100 µM
- TGI (SK-MEL-2 melanoma): > 100 µM
- GI50 (ACHN renal): > 100 µM
- TGI (ACHN renal): > 100 µM
- GI50 (HT29 colon): > 100 µM
- TGI (HT29 colon): > 100 µM
